The text below walks through data of US9856247B2, “4-methyl-dihydropyrimidines for the treatment and prophylaxis of Hepatitis B virus infection” (Hoffmann-La Roche Inc., priority 2012, dated 2018).

In general, EC50 refers to the concentration giving half of the maximal effect.

One series is described as follows: in vitro. The settings on record: human. The protocol: The transfected cells were selected with G418 (also known as Genticin, purchased from Invitrogen). […] These cells were maintained in Dulbecco's modified Eagle's medium (DMEM)-F12 medium (Invitrogen) supplemented with 10% fetal bovine serum, 100 U/ml penicillin, and 100 μg/ml streptomycin, 0.5 mg/ml of G418 and 1 μg/ml tetracycline.
To determine if the anti-HBV effect of compound is due to cytotoxicity, HepDE 19 cells (5×10^3 cells/well) were seeded into 96-well plates and compounds were treated as described above. […] Four hours after incubation at 37° C., the absorbance at wavelengths of 450 nm and 630 nm (OD450 and OD630) was recorded by a plate reader.

For another series, the system named is HBV DNA. Kind of series: Anti-HBV activity in HepDE19 cells (HBV DNA dot-blot). The format is cell-based, Hepatitis B virus (HBV). The settings on record: Hepatitis B virus, 120 h; HepDE19 cells, five days after compound treatment, concentration that inhibited HBV DNA by 50%; read-out: HepDe19 EC50. The text has this:
Cells and culture conditions: HepDE19 (Haitao Guo et al, Journal of Virology, 81, November 2007, 12472-12484; Richeng Mao et al, Journal of Virology, 85, January 2011, 1048-1057) cells were derived from HepG2 (ATCC, American Type Culture Collection) cells through transfection with pTet-off plasmid (Clontech) that expresses the Tet-responsive transcriptional activator and pTREHBVDE plasmid in which HBV pgRNA expression is controlled by a CMV early promoter with a tetracycline-responsive element. The transfected cells were selected with G418 (also known as Genticin, purchased from Invitrogen). […] These cells were maintained in Dulbecco's modified Eagle's medium (DMEM)-F12 medium (Invitrogen) supplemented with 10% fetal bovine serum, 100 U/ml penicillin, and 100 μg/ml streptomycin, 0.5 mg/ml of G418 and 1 μg/ml tetracycline.
Anti-HBV activity and cytotoxicity: HepDE19 cells were seeded into 96-well plates (3×10^4 cells/well) with tetracycline-free medium and incubated overnight at 37° C. The test or control compounds were serially half-log diluted with medium and added into the plates (the final concentration of DMSO kept at 0.5% in each well). Five days after compound treatment, cells were washed with PBS and lysed with 50 mM Tris-1 mM EDTA-0.2% CA-630 (pH 8.0) at 37° C. for 20 min. After centrifugation to remove nuclei and other debris, the supernatant was transferred into a new plate and incubated with 2M NaOH/20×SSC (3M NaCl, 0.3M Sodium citrate, pH7.0) at rt for 30 min. Then the samples were transferred to nylon membrane and neutralized with 1M Tris (pH7.4)/2M NaCl. The presence of HBV DNA was detected by dot-blot with DIG-labeled HBV specific DNA probe and quantified by dot density. The compound concentrations that inhibited HBV DNA by 50% (EC50) were determined (See Table 1).

The molecule `COC(=O)C1=C(CN2CC(F)(F)C[C@H]2C(=O)O)NC(c2cc(F)cs2)=N[C@@]1(C)c1ccc(F)cc1` [Example 43, (S)-6-((S)-2-carboxy-4,4-difluoro-pyrrolidin-1-ylmethyl)-4-(4-fluoro-phenyl)-2-(4-fluoro-thiophen-2-yl)-4-methyl-1,4-dihydro-pyrimidine-5-carboxylic acid methyl ester] came in with a CC50 at 5 days in “in vitro” of at least 100 µM. Moreover, the EC50 in the series with HBV DNA amounted to 0.131 µM.
In “in vitro”, `COC(=O)C1=C(CN(CC(=O)O)CC(F)(F)F)NC(c2nccs2)=N[C@@]1(C)c1ccc(F)cc1` [Example 44, (S)-6-{[carboxymethyl-(2,2,2-trifluoro-ethyl)-amino]-methyl}-4-(4-fluoro-phenyl)-4-methyl-2-thiazol-2-yl-1,4-dihydro-pyrimidine-5-carboxylic acid methyl ester] showed a CC50 at 5 days of at least 100 µM. Further, the EC50 in the series on HBV DNA is 21.5 µM.
Taken in the same sequence, the figures for `COC(=O)C1=C(CN2CC(F)(F)C[C@H]2C(=O)OCCN(C)C)NC(c2nccs2)=N[C@@]1(C)c1ccc(F)cc1` [Example 46, (S)-6-[(S)-2-(2-dimethylamino-ethoxycarbonyl)-4,4-difluoro-pyrrolidin-1-ylmethyl]-4-(4-fluoro-phenyl)-4-methyl-2-thiazol-2-yl-1,4-dihydro-pyrimidine-5-carboxylic acid methyl ester] were at least 100 µM and 2.13 µM.
Taken in the same sequence, the figures for `COC(=O)C1=C(CN2CC(F)(F)CC2C(N)=O)NC(c2nccs2)=N[C@@]1(C)c1ccc(F)cc1` (stereo partly drawn) [Example 47, (S)-6-(2-carbamoyl-4,4-difluoro-pyrrolidin-1-ylmethyl)-4-(4-fluoro-phenyl)-4-methyl-2-thiazol-2-yl-1,4-dihydro-pyrimidine-5-carboxylic acid methyl ester] were at least 100 µM and 0.048 µM.
Taken in the same sequence, the figures for `COC(=O)C1=C(CN2CC(F)(F)C[C@H]2C(N)=O)NC(c2nccs2)=N[C@@]1(C)c1ccc(F)cc1` [Example 48, (S)-6-((S)-2-carbamoyl-4,4-difluoro-pyrrolidin-1-ylmethyl)-4-(4-fluoro-phenyl)-4-methyl-2-thiazol-2-yl-1,4-dihydro-pyrimidine-5-carboxylic acid methyl ester] were at least 100 µM and 0.08 µM.
Turning to `COC(=O)C1=C(CN2CC(F)(F)C[C@H]2C(=O)N(C)C)NC(c2nccs2)=N[C@@]1(C)c1ccc(F)cc1` [Example 49, (S)-6-((S)-2-dimethylcarbamoyl-4,4-difluoro-pyrrolidin-1-ylmethyl)-4-(4-fluoro-phenyl)-4-methyl-2-thiazol-2-yl-1,4-dihydro-pyrimidine-5-carboxylic acid methyl ester], in “in vitro”, the CC50 at 5 days was at least 100 µM. For the same molecule, the EC50 in the series on HBV DNA turned out to be 0.29 µM.
On the same counts, the results for `CNC(=O)[C@@H]1CC(F)(F)CN1CC1=C(C(=O)OC)C(C)(c2ccc(F)cc2)N=C(c2nccs2)N1` (stereo partly drawn) [Example 50, 6-((S)-4,4-difluoro-2-methylcarbamoyl-pyrrolidin-1-ylmethyl)-4-(4-fluoro-phenyl)-4-methyl-2-thiazol-2-yl-1,4-dihydro-pyrimidine-5-carboxylic acid methyl ester] are at least 100 µM and 0.606 µM.
On the same counts, the results for `COC(=O)C1=C(CN2CC(F)(F)C[C@H]2C(=O)NS(C)(=O)=O)NC(c2nccs2)=N[C@@]1(C)c1ccc(F)cc1` [Example 51, (S)-6-((S)-4,4-difluoro-2-methanesulfonylaminocarbonyl-pyrrolidin-1-ylmethyl)-4-(4-fluoro-phenyl)-4-methyl-2-thiazol-2-yl-1,4-dihydro-pyrimidine-5-carboxylic acid methyl ester] are 90 µM and 18.2 µM.
Taken in the same sequence, the figures for `COC(=O)C1=C(CN2CC(F)(F)C[C@H]2C(=O)Nc2nccs2)NC(c2nccs2)=N[C@@]1(C)c1ccc(F)cc1` [Example 52, (S)-6-[(S)-4,4-difluoro-2-(thiazol-2-ylcarbamoyl)-pyrrolidin-1-ylmethyl]-4-(4-fluoro-phenyl)-4-methyl-2-thiazol-2-yl-1,4-dihydro-pyrimidine-5-carboxylic acid methyl ester] were 4.07 µM and 5.43 µM.
Molecule `COC(=O)C1=C(CN2CCOC[C@H]2CO)NC(c2nccs2)=NC1(C)c1ccc(F)cc1` (stereo partly drawn) [Example 53, 4-(4-fluoro-phenyl)-6-((R)-3-hydroxymethyl-morpholin-4-ylmethyl)-4-methyl-2-thiazol-2-yl-1,4-dihydro-pyrimidine-5-carboxylic acid methyl ester] gave a CC50 at 5 days in “in vitro” of at least 100 µM. Moreover, the EC50 with HBV DNA was 1.75 µM.
On the same counts, the results for `COC(=O)C1=C(CN2CC(F)(F)C[C@H]2C(C)(C)O)NC(c2nccs2)=N[C@@]1(C)c1ccc(F)cc1` [Example 54, (S)-6-[(S)-4,4-difluoro-2-(1-hydroxy-1-methyl-ethyl)-pyrrolidin-1-ylmethyl]-4-(4-fluoro-phenyl)-4-methyl-2-thiazol-2-yl-1,4-dihydro-pyrimidine-5-carboxylic acid methyl ester] are 50.4 µM and 0.7 µM.
On the same counts, the results for `COC(=O)C1=C(CN2CC(F)(F)C[C@H]2CO)NC(c2nccs2)=N[C@@]1(C)c1ccc(F)cc1` [Example 55, (S)-6-((S)-4,4-difluoro-2-hydroxymethyl-pyrrolidin-1-ylmethyl)-4-(4-fluoro-phenyl)-4-methyl-2-thiazol-2-yl-1,4-dihydro-pyrimidine-5-carboxylic acid methyl ester] are at least 100 µM and 0.067 µM.
The molecule `COC(=O)C1=C(CN2CC(F)(F)CC2CCCO)NC(c2nccs2)=N[C@@]1(C)c1ccc(F)cc1` (stereo partly drawn) [Example 56, (S)-6-[4,4-difluoro-2-(3-hydroxy-propyl)-pyrrolidin-1-ylmethyl]-4-(4-fluoro-phenyl)-4-methyl-2-thiazol-2-yl-1,4-dihydro-pyrimidine-5-carboxylic acid methyl ester] came in with a CC50 at 5 days in “in vitro” of 90 µM. Also, the concentration giving a half-maximal response (EC50) in the series on HBV DNA turned out to be 0.66 µM.
Taken in the same sequence, the figures for `COC(=O)C1=C(CN2CC(F)(F)C[C@H]2c2nnc(C)o2)NC(c2nccs2)=N[C@@]1(C)c1ccc(F)cc1` [Example 57, (S)-6-[(S)-4,4-difluoro-2-(5-methyl-[1,3,4]oxadiazol-2-yl)-pyrrolidin-1-ylmethyl]-4-(4-fluoro-phenyl)-4-methyl-2-thiazol-2-yl-1,4-dihydro-pyrimidine-5-carboxylic acid methyl ester] were at least 100 µM and 1.56 µM.
Molecule `COC(=O)C1=C(CN2CC(F)(F)C[C@H]2c2nnn[nH]2)NC(c2nccs2)=N[C@@]1(C)c1ccc(F)cc1` [Example 58, (S)-6-[(S)-4,4-difluoro-2-(1H-tetrazol-5-yl)-pyrrolidin-1-ylmethyl]-4-(4-fluoro-phenyl)-4-methyl-2-thiazol-2-yl-1,4-dihydro-pyrimidine-5-carboxylic acid methyl ester] had a CC50 at 5 days in “in vitro” of at least 100 µM. In addition, in the series on HBV DNA, the EC50 amounted to 1.02 µM.
In the case of `COC(=O)C1=C(CN2CC(F)(F)C[C@H]2c2nc(C)no2)NC(c2nccs2)=N[C@@]1(C)c1ccc(F)cc1` [Example 59, (S)-6-[(S)-4,4-difluoro-2-(3-methyl-[1,2,4]oxadiazol-5-yl)-pyrrolidin-1-ylmethyl]-4-(4-fluoro-phenyl)-4-methyl-2-thiazol-2-yl-1,4-dihydro-pyrimidine-5-carboxylic acid methyl ester], the CC50 at 5 days in “in vitro” is 65.3 µM. Moreover, the EC50 in the series with HBV DNA turned out to be 1.24 µM.
